{
  "source": "paper PMC11191095",
  "about": "“QSAR Reveals Decreased Lipophilicity of Polar Residues Determines the Selectivity of Antimicrobial Peptide Activity” (ACS Omega, 2024)",
  "test_system": "human erythrocytes",
  "assay": "In vitro hemolytic activity",
  "assay_type": "cell-based",
  "settings": "1 h",
  "method_in_brief": "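Serial peptide dilutions in PBS mixed 1:1 with fresh erythrocytes, 1 h at 37 °C; supernatant OD550 measured after centrifugation. Hemolysis normalized to 0.1% Triton X-100 (full lysis) and PBS (none); HC10 and HC50 taken from dose–response curves.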",
  "key": {"[1]": {"settings": "human erythrocytes in PBS, 37 °C, OD550, from dose response curves"}},
  "note": "Where a SMILES comes first, the peptide text is derived from it.",
  "data": [
    {"smiles": "CC(C)[C@H](NC(=O)CNC(=O)[C@H](CCCNC(=N)N)NC(=O)[C@H](CCCNC(=N)N)NC(=O)[C@H](CS)NC(=O)[C@@H](NC(=O)[C@H](CS)NC(=O)[C@@H](N)CCCNC(=N)N)C(C)C)C(=O)N[C@@H](CS)C(=O)N[C@@H](CCCNC(=N)N)C(=O)N[C@@H](CS)C(=O)N[C@H](C(=O)N[C@@H](CS)C(=O)N[C@@H](CCCNC(=N)N)C(=O)N[C@@H](CCCNC(=N)N)C(N)=O)C(C)C", "note": "[BTD15a] (H-RCVCRRGVCRCVCRR-NH2; N-terminus assumed)", "values": [
      {"measurement": "HC10 (concentration causing 10% hemolysis)", "setting": "[1]", "result": 9, "unit": "µg/mL"},
      {"measurement": "HC50 (concentration causing 50% hemolysis)", "setting": "[1]", "result": 33, "unit": "µg/mL"},
      {"measurement": "% hemolysis", "setting": "red cells of human, 256 μg/mL", "result": 100, "unit": "%"}
    ]}
  ]
}
